Experimental data reported in the NIST ThermoML archive (doi:10.1016/j.jct.2016.03.026).
Numbers after ± are expanded uncertainties.

Assay: xn = mol fraction of the nth substance listed
Settings: Fluid (supercritical or subcritical phases), x1 = 0.97; for speed of sound: 304.19 K, Frequency=5 MHz, Pulse-echo method; for mass density: 304.21 K, Vibrating tube method

For O=C=O [carbon dioxide] + CO, the speed of sound (65100 kPa) was 894.9 ± 1.2 m/s, the speed of sound (70230 kPa) was 919.7 ± 1.2 m/s and the speed of sound (75540 kPa) was 944.1 ± 1.2 m/s. It also gave a speed of sound (79980 kPa) of 963.6 ± 1.3 m/s, a speed of sound (90070 kPa) of 1005.1 ± 1.3 m/s and a speed of sound (100040 kPa) of 1043.2 ± 1.3 m/s. It also gave a speed of sound (109900 kPa) of 1078.3 ± 1.4 m/s, a speed of sound (119960 kPa) of 1112.5 ± 1.4 m/s and a speed of sound (140090 kPa) of 1173.8 ± 1.5 m/s. It also gave a speed of sound (159770 kPa) of 1228.8 ± 1.6 m/s, a speed of sound (180450 kPa) of 1282 ± 1.6 m/s and a mass density (7850 kPa) of 713.81 ± 0.83 kg/m3. It also gave a mass density (7875 kPa) of 715.24 ± 0.83 kg/m3, a mass density (7900 kPa) of 716.69 ± 0.83 kg/m3 and a mass density (7925 kPa) of 717.99 ± 0.83 kg/m3. It also gave a mass density (7950 kPa) of 719.19 ± 0.83 kg/m3, a mass density (7975 kPa) of 720.37 ± 0.83 kg/m3 and a mass density (8000 kPa) of 721.57 ± 0.83 kg/m3. The mass density (8025 kPa) was 722.66 ± 0.83 kg/m3, the mass density (8050 kPa) was 723.78 ± 0.83 kg/m3 and the mass density (8075 kPa) was 724.91 ± 0.83 kg/m3. For the same compound, the mass density (8100 kPa) was 725.92 ± 0.83 kg/m3, the mass density (8125 kPa) was 726.93 ± 0.83 kg/m3 and the mass density (8150 kPa) was 728.01 ± 0.83 kg/m3. The mass density (8175 kPa) was 729.1 ± 0.83 kg/m3, the mass density (8200 kPa) was 730.14 ± 0.83 kg/m3 and the mass density (8225 kPa) was 731.15 ± 0.83 kg/m3. For the same compound, the mass density (8250 kPa) was 732.12 ± 0.83 kg/m3, the mass density (8275 kPa) was 733.11 ± 0.83 kg/m3 and the mass density (8300 kPa) was 734.02 ± 0.82 kg/m3. The mass density (8325 kPa) was 735.01 ± 0.82 kg/m3, the mass density (8350 kPa) was 735.91 ± 0.82 kg/m3 and the mass density (8375 kPa) was 736.81 ± 0.82 kg/m3. It also gave a mass density (8400 kPa) of 737.68 ± 0.82 kg/m3, a mass density (8425 kPa) of 738.51 ± 0.82 kg/m3 and a mass density (8450 kPa) of 739.43 ± 0.82 kg/m3. The mass density (8475 kPa) was 740.29 ± 0.82 kg/m3, the mass density (8500 kPa) was 741.14 ± 0.82 kg/m3 and the mass density (8525 kPa) was 741.99 ± 0.82 kg/m3. It also gave a mass density (8550 kPa) of 742.83 ± 0.82 kg/m3, a mass density (8575 kPa) of 743.65 ± 0.82 kg/m3 and a mass density (8600 kPa) of 744.47 ± 0.82 kg/m3. For the same compound, the mass density (8625 kPa) was 745.32 ± 0.82 kg/m3, the mass density (8650 kPa) was 746.1 ± 0.82 kg/m3 and the mass density (8675 kPa) was 746.89 ± 0.82 kg/m3. It also gave a mass density (8700 kPa) of 747.67 ± 0.82 kg/m3, a mass density (8725 kPa) of 748.5 ± 0.82 kg/m3 and a mass density (8750 kPa) of 749.21 ± 0.82 kg/m3. It also gave a mass density (8775 kPa) of 749.97 ± 0.82 kg/m3, a mass density (8800 kPa) of 750.73 ± 0.82 kg/m3 and a mass density (8825 kPa) of 751.52 ± 0.82 kg/m3. It also gave a mass density (8850 kPa) of 752.22 ± 0.82 kg/m3, a mass density (8875 kPa) of 752.97 ± 0.82 kg/m3 and a mass density (8900 kPa) of 753.68 ± 0.82 kg/m3. The mass density (8925 kPa) was 754.39 ± 0.82 kg/m3, the mass density (8950 kPa) was 755.11 ± 0.82 kg/m3 and the mass density (8975 kPa) was 755.82 ± 0.82 kg/m3. For the same compound, the mass density (9000 kPa) was 756.48 ± 0.82 kg/m3, the mass density (9025 kPa) was 757.25 ± 0.82 kg/m3 and the mass density (9050 kPa) was 757.93 ± 0.82 kg/m3. It also gave a mass density (9075 kPa) of 758.64 ± 0.82 kg/m3, a mass density (9100 kPa) of 759.25 ± 0.82 kg/m3 and a mass density (9125 kPa) of 759.92 ± 0.82 kg/m3. For the same compound, the mass density (9150 kPa) was 760.55 ± 0.82 kg/m3, the mass density (9175 kPa) was 761.24 ± 0.82 kg/m3 and the mass density (9200 kPa) was 761.88 ± 0.82 kg/m3. It also gave a mass density (9225 kPa) of 762.52 ± 0.82 kg/m3, a mass density (9250 kPa) of 763.15 ± 0.82 kg/m3 and a mass density (9275 kPa) of 763.76 ± 0.82 kg/m3. The mass density (9300 kPa) was 764.36 ± 0.82 kg/m3, the mass density (9325 kPa) was 764.98 ± 0.82 kg/m3 and the mass density (9350 kPa) was 765.65 ± 0.82 kg/m3. The mass density (9375 kPa) was 766.27 ± 0.82 kg/m3, the mass density (9400 kPa) was 766.88 ± 0.82 kg/m3 and the mass density (9425 kPa) was 767.44 ± 0.82 kg/m3. It also gave a mass density (9450 kPa) of 768.06 ± 0.82 kg/m3, a mass density (9475 kPa) of 768.6 ± 0.82 kg/m3 and a mass density (9500 kPa) of 769.12 ± 0.82 kg/m3. The mass density (9525 kPa) was 769.73 ± 0.82 kg/m3, the mass density (9550 kPa) was 770.22 ± 0.82 kg/m3 and the mass density (9575 kPa) was 770.76 ± 0.82 kg/m3. The mass density (9600 kPa) was 771.35 ± 0.82 kg/m3, the mass density (9625 kPa) was 771.96 ± 0.82 kg/m3 and the mass density (9650 kPa) was 772.5 ± 0.82 kg/m3. The mass density (9675 kPa) was 773.03 ± 0.82 kg/m3, the mass density (9700 kPa) was 773.62 ± 0.82 kg/m3 and the mass density (9725 kPa) was 774.15 ± 0.82 kg/m3. For the same compound, the mass density (9750 kPa) was 774.65 ± 0.82 kg/m3, the mass density (9775 kPa) was 775.2 ± 0.82 kg/m3 and the mass density (9800 kPa) was 775.72 ± 0.82 kg/m3. For the same compound, the mass density (9825 kPa) was 776.25 ± 0.82 kg/m3, the mass density (9850 kPa) was 776.81 ± 0.82 kg/m3 and the mass density (9875 kPa) was 777.3 ± 0.82 kg/m3. It also gave a mass density (9900 kPa) of 777.81 ± 0.82 kg/m3, a mass density (9925 kPa) of 778.36 ± 0.82 kg/m3 and a mass density (9950 kPa) of 778.83 ± 0.82 kg/m3. For the same compound, the mass density (9975 kPa) was 779.32 ± 0.82 kg/m3, the mass density (10000 kPa) was 779.86 ± 0.82 kg/m3 and the mass density (10025 kPa) was 780.3 ± 0.82 kg/m3. The mass density (10050 kPa) was 780.81 ± 0.82 kg/m3, the mass density (10075 kPa) was 781.33 ± 0.82 kg/m3 and the mass density (10100 kPa) was 781.81 ± 0.82 kg/m3. For the same compound, the mass density (10125 kPa) was 782.29 ± 0.82 kg/m3, the mass density (10150 kPa) was 782.79 ± 0.82 kg/m3 and the mass density (10175 kPa) was 783.3 ± 0.82 kg/m3. The mass density (10200 kPa) was 783.77 ± 0.82 kg/m3, the mass density (10225 kPa) was 784.17 ± 0.82 kg/m3 and the mass density (10250 kPa) was 784.67 ± 0.82 kg/m3. It also gave a mass density (10275 kPa) of 785.18 ± 0.82 kg/m3, a mass density (10300 kPa) of 785.65 ± 0.82 kg/m3 and a mass density (10325 kPa) of 786.13 ± 0.82 kg/m3. It also gave a mass density (10350 kPa) of 786.55 ± 0.82 kg/m3, a mass density (10375 kPa) of 787.08 ± 0.82 kg/m3 and a mass density (10400 kPa) of 787.51 ± 0.82 kg/m3. For the same compound, the mass density (10425 kPa) was 787.92 ± 0.82 kg/m3, the mass density (10450 kPa) was 788.38 ± 0.82 kg/m3 and the mass density (10475 kPa) was 788.87 ± 0.82 kg/m3. For the same compound, the mass density (10500 kPa) was 789.3 ± 0.82 kg/m3, the mass density (10525 kPa) was 789.73 ± 0.82 kg/m3 and the mass density (10550 kPa) was 790.18 ± 0.82 kg/m3. The mass density (10575 kPa) was 790.6 ± 0.82 kg/m3 and the mass density (10600 kPa) was 791.05 ± 0.82 kg/m3.
